# Measurements from ChEMBL document CHEMBL3259655, “Anthranilic acid derivatives as novel ligands for farnesoid X receptor (FXR)” (Bioorg Med Chem, 2014).
# Active and inactive are the calls of the source. No cut-off for these calls is given here.
# Test system: not listed separately
# Assay: Aqueous solubility of the compound
# Assay type: physicochemical
# Conditions: water
row,solubility [µg/mL],SMILES
1,45,O=C(O)CCCNC(=O)c1ccccc1NC(=O)c1ccc2ccccc2c1
2,0.3,O=C(O)c1cccc(NC(=O)c2ccccc2NC(=O)c2ccc3ccccc3c2)c1

# Test system: HepG2
# Assay: Cytotoxicity against human HepG2 cells at 30 uM after 48 hrs by WST-1 assay relative to control
# Assay type: cell-based
# Conditions: hepg2, 48 h
row,SMILES,Activity [%]
1,O=C(O)CCCNC(=O)c1ccccc1NC(=O)c1ccc2ccccc2c1,90
2,O=C(O)c1cccc(NC(=O)c2ccccc2NC(=O)c2ccc3ccccc3c2)c1,65

# Test system: not listed separately
# Assay: Metabolic stability in Sprague-Dawley rat liver microsomes assessed as compound remaining at 10 uM after 60 mins by HPLC analysis
# Assay type: ADME
# Conditions: read-out: Stability
row,"remaining at 1 h, 10 µM [%]",SMILES
1,92,O=C(O)CCCNC(=O)c1ccccc1NC(=O)c1ccc2ccccc2c1
2,61,O=C(O)c1cccc(NC(=O)c2ccccc2NC(=O)c2ccc3ccccc3c2)c1

# Test system: HeLa
# Assay: Cytotoxicity against human HeLa cells at 60 uM after 48 hrs by WST-1 assay
# Assay type: cell-based
# Conditions: not given
row,SMILES,Activity
1,O=C(O)CCCNC(=O)c1ccccc1NC(=O)c1ccc2ccccc2c1,Non-toxic
2,O=C(O)c1cccc(NC(=O)c2ccccc2NC(=O)c2ccc3ccccc3c2)c1,Non-toxic

# Test system: HepG2
# Assay: Cytotoxicity against human HepG2 cells at 100 uM after 48 hrs by WST-1 assay relative to control
# Assay type: cell-based
# Conditions: hepg2, 48 h
row,SMILES,Activity [%]
1,O=C(O)CCCNC(=O)c1ccccc1NC(=O)c1ccc2ccccc2c1,84
2,O=C(O)c1cccc(NC(=O)c2ccccc2NC(=O)c2ccc3ccccc3c2)c1,46

# Target: T1, Polyunsaturated fatty acid 5-lipoxygenase (Homo sapiens) (UniProt P09917)
# T1 sequence (whole entry): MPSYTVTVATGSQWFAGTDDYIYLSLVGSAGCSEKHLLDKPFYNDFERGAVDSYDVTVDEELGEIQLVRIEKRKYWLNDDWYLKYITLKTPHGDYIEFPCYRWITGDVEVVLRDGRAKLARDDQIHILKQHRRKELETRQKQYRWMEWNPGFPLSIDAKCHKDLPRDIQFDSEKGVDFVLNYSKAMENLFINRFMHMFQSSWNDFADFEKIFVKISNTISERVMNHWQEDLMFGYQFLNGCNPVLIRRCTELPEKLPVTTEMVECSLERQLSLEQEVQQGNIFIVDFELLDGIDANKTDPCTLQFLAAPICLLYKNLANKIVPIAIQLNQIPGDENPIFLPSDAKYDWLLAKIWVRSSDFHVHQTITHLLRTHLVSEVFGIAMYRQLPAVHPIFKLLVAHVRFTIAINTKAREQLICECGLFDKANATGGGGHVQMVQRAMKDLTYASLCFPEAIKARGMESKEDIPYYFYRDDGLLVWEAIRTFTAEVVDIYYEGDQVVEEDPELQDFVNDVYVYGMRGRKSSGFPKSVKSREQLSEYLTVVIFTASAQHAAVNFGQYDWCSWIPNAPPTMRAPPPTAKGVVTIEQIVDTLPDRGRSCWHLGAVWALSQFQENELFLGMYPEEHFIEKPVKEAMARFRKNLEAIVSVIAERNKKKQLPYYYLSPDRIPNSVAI
# Assay: Inhibition of 5-LO in human polymorphonuclear leukocytes using arachidonic acid as substrate at 10 uM preincubated for 15 mins followed by substrate addition measured after 10 mins by HPLC analysis in presence of Ca2+-ionophore A23187
# Assay type: cell-based
# Conditions: not given
row,inhibition,SMILES
1,inactive,O=C(O)CCCNC(=O)c1ccccc1NC(=O)c1ccc2ccccc2c1

# Target: T2, Bile acid receptor (Homo sapiens) (UniProt Q96RI1)
# T2 sequence (whole entry): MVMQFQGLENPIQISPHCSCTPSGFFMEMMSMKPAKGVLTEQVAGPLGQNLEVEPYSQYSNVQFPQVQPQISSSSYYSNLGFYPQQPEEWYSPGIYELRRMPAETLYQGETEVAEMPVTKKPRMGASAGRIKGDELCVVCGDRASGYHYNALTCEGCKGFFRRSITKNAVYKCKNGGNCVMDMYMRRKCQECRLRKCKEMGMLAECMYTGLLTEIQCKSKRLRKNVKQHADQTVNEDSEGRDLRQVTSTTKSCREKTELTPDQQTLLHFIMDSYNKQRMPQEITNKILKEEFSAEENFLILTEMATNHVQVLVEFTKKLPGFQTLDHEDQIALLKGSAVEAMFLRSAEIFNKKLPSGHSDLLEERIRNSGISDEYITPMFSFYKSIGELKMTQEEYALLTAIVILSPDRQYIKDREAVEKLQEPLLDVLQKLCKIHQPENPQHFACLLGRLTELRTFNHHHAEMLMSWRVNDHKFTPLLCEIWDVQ
# Assay: Agonist activity at human FXR expressed in human HeLa cells assessed as transactivation at 3 uM after 24 hrs by luciferase reporter gene assay relative to GW4064
# Assay type: cell-based
# Conditions: not given
row,SMILES,max activation
1,O=C(O)CCCNC(=O)c1ccccc1NC(=O)c1cccs1,inactive
2,O=C(O)CCCNC(=O)c1ccccc1NC(=O)c1ccc(-c2ccccc2)cc1,inactive

# Next, values leading:
row,max activation,SMILES
1,inactive,O=C(O)CCCNC(=O)c1ccccc1NC(=O)C(c1ccccc1)c1ccccc1
2,inactive,COc1ccc(C(=O)Nc2ccccc2C(=O)NCCCC(=O)O)cc1

# Test system: not listed separately
# Assay: Metabolic stability in Sprague-Dawley rat liver microsomes assessed as compound remaining at 10 uM after 15 mins by HPLC analysis
# Assay type: ADME
# Conditions: read-out: Stability
row,"remaining at 0.25 h, 10 µM [%]",SMILES
1,93,O=C(O)CCCNC(=O)c1ccccc1NC(=O)c1ccc2ccccc2c1
2,86,O=C(O)c1cccc(NC(=O)c2ccccc2NC(=O)c2ccc3ccccc3c2)c1

# Test system: HepG2
# Assay: Cytotoxicity against human HepG2 cells at 10 uM after 48 hrs by WST-1 assay relative to control
# Assay type: cell-based
# Conditions: hepg2, 48 h
row,SMILES,Activity [%]
1,O=C(O)CCCNC(=O)c1ccccc1NC(=O)c1ccc2ccccc2c1,92
2,O=C(O)c1cccc(NC(=O)c2ccccc2NC(=O)c2ccc3ccccc3c2)c1,93

# Target: T3, Prostaglandin E synthase (Homo sapiens) (UniProt O14684)
# T3 sequence (whole entry): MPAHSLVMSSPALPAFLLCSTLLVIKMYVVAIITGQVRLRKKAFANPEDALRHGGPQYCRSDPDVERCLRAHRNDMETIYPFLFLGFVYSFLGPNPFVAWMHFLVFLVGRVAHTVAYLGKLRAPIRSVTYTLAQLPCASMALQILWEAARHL
# Assay: Inhibition of mPGES1 mediated PGE2 production in IL-1beta stimulated human A549 cells at 10 uM by RP-HPLC analysis
# Assay type: cell-based
# Conditions: not given
row,inhibition,SMILES
1,inactive,O=C(O)CCCNC(=O)c1ccccc1NC(=O)c1ccc2ccccc2c1

# Target: T4, Prostaglandin G/H synthase 1 (Ovis aries) (UniProt P05979)
# T4 sequence (whole entry): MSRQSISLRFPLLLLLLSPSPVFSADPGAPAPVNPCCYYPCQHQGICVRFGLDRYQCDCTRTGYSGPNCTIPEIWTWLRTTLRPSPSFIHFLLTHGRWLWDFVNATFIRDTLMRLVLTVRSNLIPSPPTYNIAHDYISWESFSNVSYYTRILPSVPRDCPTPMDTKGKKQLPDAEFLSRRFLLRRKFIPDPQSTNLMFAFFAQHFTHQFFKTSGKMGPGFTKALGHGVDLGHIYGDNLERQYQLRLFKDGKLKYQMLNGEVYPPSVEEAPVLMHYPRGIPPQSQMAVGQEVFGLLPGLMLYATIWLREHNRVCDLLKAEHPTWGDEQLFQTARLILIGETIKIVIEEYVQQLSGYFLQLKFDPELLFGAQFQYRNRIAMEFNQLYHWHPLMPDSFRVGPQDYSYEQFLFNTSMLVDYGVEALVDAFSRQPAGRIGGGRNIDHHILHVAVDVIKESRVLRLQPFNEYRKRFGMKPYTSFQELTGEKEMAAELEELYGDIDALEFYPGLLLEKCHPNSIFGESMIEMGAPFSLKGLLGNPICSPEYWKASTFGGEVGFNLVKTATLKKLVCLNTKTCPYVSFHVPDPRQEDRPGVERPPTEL
# Assay: Inhibition of ovine COX1 using arachidonic acid as substrate up to 10 uM preincubated for 5 mins followed by substrate addition measured after 5 mins
# Conditions: not given
row,inhibition,SMILES
1,inactive,O=C(O)CCCNC(=O)c1ccccc1NC(=O)c1ccc2ccccc2c1

# Target: T5, Prostaglandin G/H synthase 2 (Homo sapiens) (UniProt P35354)
# T5 sequence (whole entry): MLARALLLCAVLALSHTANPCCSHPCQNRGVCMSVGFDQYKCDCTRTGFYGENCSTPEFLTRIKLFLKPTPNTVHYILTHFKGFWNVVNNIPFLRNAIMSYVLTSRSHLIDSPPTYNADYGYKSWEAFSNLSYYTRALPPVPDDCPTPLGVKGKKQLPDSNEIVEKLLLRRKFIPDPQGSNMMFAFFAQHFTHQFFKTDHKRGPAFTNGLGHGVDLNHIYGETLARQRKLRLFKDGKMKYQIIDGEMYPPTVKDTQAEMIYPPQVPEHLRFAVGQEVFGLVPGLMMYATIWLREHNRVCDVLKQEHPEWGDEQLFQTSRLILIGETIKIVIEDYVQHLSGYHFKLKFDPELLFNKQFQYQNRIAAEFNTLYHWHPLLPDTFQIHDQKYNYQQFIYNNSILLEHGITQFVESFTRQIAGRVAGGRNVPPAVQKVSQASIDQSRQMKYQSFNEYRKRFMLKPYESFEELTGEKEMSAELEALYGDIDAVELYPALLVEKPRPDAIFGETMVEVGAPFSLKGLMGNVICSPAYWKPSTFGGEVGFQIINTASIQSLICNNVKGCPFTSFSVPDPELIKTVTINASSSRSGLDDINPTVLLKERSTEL
# Assay: Inhibition of recombinant human COX2 using arachidonic acid as substrate up to 10 uM preincubated for 5 mins followed by substrate addition measured after 5 mins
# Conditions: not given
row,inhibition,SMILES
1,inactive,O=C(O)CCCNC(=O)c1ccccc1NC(=O)c1ccc2ccccc2c1

# Target: T6, Bile acid receptor (Homo sapiens, UniProt Q96RI1)
# T6 sequence (Q96RI1 whole entry): T2 sequence (whole entry)
# Assay: Agonist activity at human FXR expressed in human HeLa cells assessed as transactivation after 24 hrs by luciferase reporter gene assay
# Assay type: cell-based
# Conditions: not given
row,SMILES,EC50 [µM]
1,O=C(O)Cc1ccc(NC(=O)c2ccccc2NC(=O)c2ccc3ccccc3c2)cc1,3.1
2,O=C(O)c1ccc(CNC(=O)c2ccccc2NC(=O)c2ccc3ccccc3c2)cc1,1.3
3,COC(=O)CCCNC(=O)c1ccccc1NC(=O)c1ccc2ccccc2c1,7.1
4,CC(C)(C)c1ccc(C(=O)Nc2ccccc2C(=O)NCCCC(=O)O)cc1,2.5

# Further lines, results first:
row,EC50 [µM],SMILES
1,4.4,O=C(O)CCCCCNC(=O)c1ccccc1NC(=O)c1ccc2ccccc2c1
2,0.72,O=C(O)CCCNC(=O)c1ccccc1NC(=O)/C=C/c1ccccc1
3,1,O=C(O)c1ccc(NC(=O)c2ccccc2NC(=O)c2ccc3ccccc3c2)cc1
4,8.55,O=C(O)CCCNC(=O)c1ccccc1NC(=O)c1ccc2ccccc2c1
5,1.5,O=C(O)c1cccc(NC(=O)c2ccccc2NC(=O)c2ccc3ccccc3c2)c1
6,8.3,O=C(O)CCCCNC(=O)c1ccccc1NC(=O)c1ccc2ccccc2c1

# Test system: HepG2
# Assay: Cytotoxicity against human HepG2 cells at 60 uM after 48 hrs by WST-1 assay relative to control
# Assay type: cell-based
# Conditions: hepg2, 48 h
row,SMILES,Activity [%]
1,O=C(O)CCCNC(=O)c1ccccc1NC(=O)c1ccc2ccccc2c1,81
2,O=C(O)c1cccc(NC(=O)c2ccccc2NC(=O)c2ccc3ccccc3c2)c1,50

# Test system: HeLa
# Assay: Cytotoxicity against human HeLa cells at >10 uM after 48 hrs by WST-1 assay
# Assay type: cell-based
# Conditions: not given
row,SMILES,Activity
1,O=C(O)CCCNC(=O)c1ccccc1NC(=O)C(c1ccccc1)c1ccccc1,Toxic
2,COc1ccc(C(=O)Nc2ccccc2C(=O)NCCCC(=O)O)cc1,Toxic
3,O=C(O)CCCNC(=O)c1ccccc1NC(=O)c1cccs1,Toxic
4,O=C(O)CCCNC(=O)c1ccccc1NC(=O)c1ccc(-c2ccccc2)cc1,Toxic

# Test system: not listed separately
# Assay: Metabolic stability in Sprague-Dawley rat liver microsomes assessed as compound remaining at 10 uM after 30 mins by HPLC analysis
# Assay type: ADME
# Conditions: read-out: Stability
row,"remaining at 0.5 h, 10 µM [%]",SMILES
1,93,O=C(O)CCCNC(=O)c1ccccc1NC(=O)c1ccc2ccccc2c1
2,76,O=C(O)c1cccc(NC(=O)c2ccccc2NC(=O)c2ccc3ccccc3c2)c1

# Target: T2, Bile acid receptor (Homo sapiens)
# Assay: Agonist activity at human FXR expressed in human HeLa cells assessed as transactivation after 24 hrs by luciferase reporter gene assay relative to GW4064
# Assay type: cell-based
# Conditions: not given
row,SMILES,max activation [%]
1,O=C(O)Cc1ccc(NC(=O)c2ccccc2NC(=O)c2ccc3ccccc3c2)cc1,9.8
2,O=C(O)c1ccc(CNC(=O)c2ccccc2NC(=O)c2ccc3ccccc3c2)cc1,10
3,COC(=O)CCCNC(=O)c1ccccc1NC(=O)c1ccc2ccccc2c1,19
4,CC(C)(C)c1ccc(C(=O)Nc2ccccc2C(=O)NCCCC(=O)O)cc1,19

# Other lines, results leading:
row,max activation [%],SMILES
1,10.4,O=C(O)CCCCCNC(=O)c1ccccc1NC(=O)c1ccc2ccccc2c1
2,12.4,O=C(O)CCCNC(=O)c1ccccc1NC(=O)/C=C/c1ccccc1
3,23,O=C(O)c1ccc(NC(=O)c2ccccc2NC(=O)c2ccc3ccccc3c2)cc1
4,37,O=C(O)CCCNC(=O)c1ccccc1NC(=O)c1ccc2ccccc2c1
5,37,O=C(O)c1cccc(NC(=O)c2ccccc2NC(=O)c2ccc3ccccc3c2)c1
6,11.4,O=C(O)CCCCNC(=O)c1ccccc1NC(=O)c1ccc2ccccc2c1
